From patent US9126060B2, “Cosmetic use of geranylgeranyl-2-propanol” (SEDERMA, priority 2010, dated 2015)
Blank lines part the entries; values can stand above or below the molecule they belong to.

Columns and labels:
[1] = ORAC test (Oxygen-Radical Absorbance Capacity): fluorescein degradation by peroxyl radicals; assay type: biochemical; conditions: positive control, 10μ
Excerpt: Principle: the ORAC test (“Oxygen-Radical Absorbance Capacity”) measures degradation by the oxidative way of a fluorescent molecule (fluorescein). Degradation of fluorescein by peroxyl radicals generated by AAPH (2,2′-azobis (2-amidinopropane) dichloride) induces a decrease in fluorescence measured by a spectrofluorometer during a degradation kinetic.
An antioxidant protects this fluorescein against this radical degradation. The decrease in fluorescence will be smaller and slower in the presence of the antioxidant than in its absence. The comparison between the parameters of the two kinetics makes it possible to calculate a percentage of protection against free radical degradation.

fibroblasts (FHN) = assay: Intracellular peroxide level (DCFH-DA probe) in fibroblasts after SIPS; assay type: cell-based, human; conditions: 120 ppm
Protocol: Principle: Fibroblasts at confluence contacted or not with the GGP for several days, are subjected to oxidative stress by hydrogen peroxide in the presence or absence of the GGP. This stress is intended to induce premature senescence in cells.
After this initial stress, the cells were detached from the support and returned to culture at low density until confluence. They are then contacted or not with the compound of the invention for 24 hours. At this stage, each set of cultures (with or without the tested compounds) is divided into 2 lots. A first batch (not stressed) is evaluated directly for its concentration of intracellular peroxides (using the probe DCFH-DA). Simultaneously, the other batch (stressed) undergoes a second stress by hydrogen peroxide (weaker than the first) just before being evaluated in the same way regarding the concentration of intracellular peroxides.
The amount of fluorescence measured with this probe is directly proportional to the amount of peroxides present in the cells.

presenescent fibroblasts = assay: Mitochondrial membrane potential of presenescent fibroblasts (dye ratio λ520/λ590); assay type: cell-based; conditions: 120 ppm
Excerpt: It is possible to measure the membrane potential through a specific membrane dye. Depending on the level of the membrane potential, this dye is rather present as monomer (emission fluorescence at 520 nm) or rather in the multimetric form (fluorescence emission at 590 nm). High membrane potential promotes a multimetric form.
The ratio λ520/λ590 varies inversely with the membrane potential. The lower the ratio is, the higher the membrane potential is. The increase in the ratio thus reflects a decrease in membrane potential. The ratio λ520/λ590 for young and proliferating cells is 2.97+/−0.17.
[…] After this period, the membrane potential of half of the cultures was measured.
The other half of the cultures underwent an oxidative stress (hydrogen peroxide) before measuring their membrane potential.

human dermal fibroblasts = assay: Senescence associated β-galactosidase activity in fibroblasts after oxidising stress (FDG fluorimetry); assay type: cell-based; conditions: 120 ppm; positive control
Protocol: Principle: Proliferative human dermal fibroblasts were contacted or not with the GGP for 72 hours in a growth medium. After this first incubation, the cells were subjected for 5 days to an oxidative stress daily, one hour each, in a basic medium, common to all cultures. This stress is known to create a SIPS and to induce a strong increase in β-galactosidase activity in the stressed culture compared to an unstressed culture. Between two stress cells are returned to the growth medium with or without the substance tested. After the fifth stress, β-galactosidase activity is evaluated.
Evaluation of β-galactosidase activity is done after fixing the layers. They are put in contact with a substrate of β-galactosidase nonfluorescent FDG (fluorescein di-β-galactopyranoside), which will release a fluorescent compound upon hydrolysis by β-galactosidase. The emitted fluorescence is quantified in a fluorometer. It will increase with the amount of senescent cells present in culture. The relative activity of β-galactosidase thus found is 2974+/−957 UFA/million cells in a proliferative culture and increases by a factor 5 (p<0.01) in a culture little to not proliferative.

collagen I = assay: Collagen I synthesis in presenescent fibroblasts (immunofluorescence, image analysis); assay type: cell-based, human; conditions: 10^−6%; positive control
Protocol: Principle: The collagen I synthesis was monitored in pre-senescent human dermal fibroblasts. These cells were cultured for 11 days with the GGP in a growth medium. Following this incubation, the cell layers were fixed and labeled by immunofluorescence, to visualize the network of collagen I and to quantify by image analysis on photographs. In parallel, quantification was performed on proliferating cells.

hyaluronic acid = assay: Hyaluronic acid synthesis in human fibroblasts; assay type: cell-based; conditions: 10^−6%; positive control
Protocol: Principle: Human dermal fibroblasts were grown in plate for 24 hours. The cells are then placed in contact or not with GGP for 24 hours. Culture supernatants were collected and assayed for the amount of hyaluronic acid (HA) is then divided by the number of cells present on the layer. TGF-β1 is used as a positive control.

human melanocytes = assay: Melanin content of human melanocytes; assay type: cell-based; conditions: 0.03%; positive control
Protocol: (§1) Principle: Human melanocytes are seeded and placed in contact with the GGP for 5 days. After incubation, the residual tyrosinase activity and total melanin content were measured in cell homogenates, and then divided by the number of cells (melanin) or to the protein amount (tyrosinase).

tyrosinase = molecular target: T1, tyrosinase (Homo sapiens, UniProt P14679); assay: Residual tyrosinase activity in human melanocytes; assay type: cell-based; conditions: 0.03%; positive control
T1 construct: endogenous in cells; host or cells: human melanocytes
T1 sequence (P14679 19-529): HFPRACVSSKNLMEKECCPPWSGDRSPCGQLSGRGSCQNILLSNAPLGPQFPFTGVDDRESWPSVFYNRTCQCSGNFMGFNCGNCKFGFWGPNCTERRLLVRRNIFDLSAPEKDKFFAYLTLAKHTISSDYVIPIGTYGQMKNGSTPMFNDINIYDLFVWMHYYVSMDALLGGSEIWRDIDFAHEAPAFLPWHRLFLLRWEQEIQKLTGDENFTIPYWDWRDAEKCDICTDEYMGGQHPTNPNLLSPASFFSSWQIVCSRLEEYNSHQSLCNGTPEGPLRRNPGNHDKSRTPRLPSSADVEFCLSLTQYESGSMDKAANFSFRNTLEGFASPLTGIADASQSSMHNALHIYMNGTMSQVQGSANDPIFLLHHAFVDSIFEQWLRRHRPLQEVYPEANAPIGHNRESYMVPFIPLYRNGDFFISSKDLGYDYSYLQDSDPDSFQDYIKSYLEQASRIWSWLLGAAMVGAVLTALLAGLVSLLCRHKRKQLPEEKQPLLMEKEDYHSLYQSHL
Protocol: as §1

[2] = SIPS fibroblasts subjected to a second oxidant stress

Molecule: Cc1c(C)c2c(c(C)c1O)CCC(C)(C(=O)O)O2 (stereo not drawn) [Trolox, reference compound]
- % of protection [1]: Positive control = Trolox 10μ = 94% (p < 0.01)
- % Change/Control of endogen peroxides (fibroblasts (FHN); [2]): −85%; p < 0.01
- Endogen peroxides (fibroblasts (FHN); [2]): 158 +/− 7 UFA/million of cells
- % Change/Control of endogen peroxides (fibroblasts (FHN); after SIPS, not stressed again): −43%; p < 0.01
- Endogen peroxides (fibroblasts (FHN); after SIPS, not stressed again): 57.5 +/− 3.8 UFA/million of cells
- % of protection of the respiration potential (presenescent fibroblasts; no stress): +44%; nsd
- ΔΨ loss with regard to non stressed young cells (presenescent fibroblasts; one week, no stress): 0.80 +/− 0.52
- Improvement of the respiration potential (presenescent fibroblasts; with oxidative stress): +43%; p < 0.05
- ΔΨ loss with regard to non stressed young cells (presenescent fibroblasts; with oxidative stress (hydrogen peroxide)): 3.18 +/− 1.16
- Change with regard to non stressed young cells (presenescent fibroblasts; with oxidative stress, control −100%): −57%
- Change with regard to control (β-galactosidase) (human dermal fibroblasts): Positive control: Trolox 120 ppm = −45% (p < 0.05)

Molecule: TGF-β: TGF-β1 is used as a positive control [reference compound]
- collagen I synthesis, factor vs control (collagen I): Positive control: TGF-β at 10^−6%: ×8.3 times
- % of change of hyaluronic acid vs control (hyaluronic acid): Positive control: TGF-β1 à 10^−6%: +206% (p < 0.01)

- Change (%) of tyrosinase activity vs control (tyrosinase): −33%
Molecule: OC[C@H]1O[C@@H](Oc2ccc(O)cc2)[C@H](O)[C@@H](O)[C@@H]1O [Arbutine, reference compound]
- Change (%) of melanin content vs control (human melanocytes): −40%
